# Measurements: ChEMBL document CHEMBL1128017, “Antineoplastic agents 323. Isolation and structure of phakellistatin 6 from a Chuuk archipelago marine sponge” (1994)
# Where a SMILES comes first, the peptide text is derived from it.
# Key:
# Type in all cases: functional
# OVCAR-3 = assay: Compound was tested for inhibition of OVCAR-3 human ovarian cancer cell line
# P388 = assay: Compound was tested for inhibition of murine P388 lymphocytic leukemia cancer cell line; details: Mus musculus, read-out: ED50 (the source's name)
# KM-20L2 = assay: Compound was tested for inhibition of KM20L2 human colon cancer cell line
# NCI-H460 = assay: Compound was tested for inhibition of NCI-H460 human lung cancer cell line
# SF-295 = assay: Compound was tested for inhibition of SF-295 human CNS cancer cell line
# A498 = assay: Compound was tested for inhibition of A498 human renal cancer cell line
# SK-MEL-5 = assay: Compound was tested for inhibition of SK-MEL-5 human melanoma cancer cell line
smiles,measurement,setting,value
CC[C@H](C)[C@@H]1NC(=O)[C@@H]2CCCN2C(=O)[C@H](CC(C)C)NC(=O)[C@H](Cc2c[nH]c3ccccc23)NC(=O)[C@@H]2CCCN2C(=O)[C@H](Cc2ccccc2)NC(=O)[C@@H]2CCCN2C1=O (cyclo(FPWLPIP)),GI50,OVCAR-3,0.025 µg/mL
same,EC50,P388,0.185 µg/mL
same,GI50,KM-20L2,0.021 µg/mL
same,GI50,NCI-H460,0.019 µg/mL
same,GI50,SF-295,0.041 µg/mL
same,GI50,A498,0.078 µg/mL
same,GI50,SK-MEL-5,0.032 µg/mL
